Here are results for three compounds from patent US6900354B2, “3-phenyl-propionamido, 3-phenyl-acrylamido and 3-phenyl-propynamido derivatives” (Hoffman-La Roche Inc., priority 2002, dated 2005).

Bounds are passed on as bounds.

As a reminder, the IC50 is the concentration at which inhibition is half-maximal. Read a low IC50 as inhibition by little substance.

One experiment concerns the target T1, human MAO-A (Homo sapiens, UniProt P21397).
T1 construct: expressed in transfected cells; host or cells: EBNA cells (transient transfection); membranes by centrifugation at 45,000 x g
T1 sequence (P21397 1-527): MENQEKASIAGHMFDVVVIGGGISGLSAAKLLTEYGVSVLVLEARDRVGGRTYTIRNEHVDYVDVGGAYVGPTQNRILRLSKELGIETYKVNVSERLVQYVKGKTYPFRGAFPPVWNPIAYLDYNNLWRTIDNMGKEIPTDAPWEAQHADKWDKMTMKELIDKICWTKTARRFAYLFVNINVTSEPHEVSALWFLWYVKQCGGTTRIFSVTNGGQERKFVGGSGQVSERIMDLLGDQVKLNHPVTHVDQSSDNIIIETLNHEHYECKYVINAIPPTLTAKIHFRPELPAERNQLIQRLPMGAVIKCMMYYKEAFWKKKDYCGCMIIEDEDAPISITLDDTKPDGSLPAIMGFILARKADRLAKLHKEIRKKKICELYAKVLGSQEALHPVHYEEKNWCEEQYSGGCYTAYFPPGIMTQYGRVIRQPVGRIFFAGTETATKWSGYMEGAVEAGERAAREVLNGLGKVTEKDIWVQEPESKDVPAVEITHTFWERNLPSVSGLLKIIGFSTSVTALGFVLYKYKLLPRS
The experiment can be described thus: MAO-A enzymatic activity, spectrophotometric assay (Amplex Red, tyramine) on membranes of transfected EBNA cells. It is filed as biochemical. The following applies: heading: MAO-A IC50, substrate tyramine, 30 min preincubation at 37° C., pH 7.4. The method, then:
(§1) The pharmacological activity of the compounds was tested using the following method. The cDNAs encoding human MAO-A and MAO-B were transiently transfected into EBNA cells using the procedure described by Schlaeger and Christensen [Transient Gene Expression in Mammalian Cells Grown in Serum-free Suspension Culture; Cytotechnology, 15:1-13 (1998)]. After transfection, cells were homogenised by means of a Polytron homogenizer in 20 mM Tris HCl buffer, pH 8.0, containing 0.5 mM EGTA and 0.5 mM phenylmethanesulfonyl fluoride. Cell membranes were obtained by centrifugation at 45,000×g and, after two rinsing step with 20 mM Tris HCl buffer, pH 8.0, containing 0.5 mM EGTA, membranes were eventually re-suspended in the above buffer and aliquots stored at −80° C. until use.
(§2) MAO-A and MAO-B enzymatic activity was assayed in 96-well-plates using a spectrophotometric assay adapted from the method described by Zhou and Panchuk-Voloshina [A One-Step Fluorometric Method for the Continuous Measurement of Monoamine Oxidase Activity, Analytical Biochemistry 253:169-174 (1997)]. Briefly, membrane aliquots were incubated in 0.1 M potassium phosphate buffer, pH 7.4, for 30 min at 37° C. with or without various concentrations of the compounds. After this period, the enzymatic reaction was started by the addition of the MAO substrate tyramine together with 1 U/ml horse-radish peroxidase (Roche Biochemicals) and 80 μM N-acetyl-3,7,-dihydroxyphenoxazine (Amplex Red, Molecular Probes). The samples were further incubated for 30 min at 37° C. in a final volume of 200 μl and absorbance was then determined at a wavelength of 570 nm using a SpectraMax plate reader (Molecular Devices). Background (non-specific) absorbance was determined in the presence of 10 μM clorgyline for MAO-A or 10 μM L-deprenyl for MAO-B.
(§3) IC50 values were determined from inhibition curves obtained using nine inhibitor concentrations in duplicate, by fitting data to a four parameter logistic equation using a computer program.

The next experiment concerns the target T2, human MAO-B (Homo sapiens, UniProt P27338).
T2 construct: expressed in transfected cells; host or cells: EBNA cells (transient transfection); membranes by centrifugation at 45,000 x g
T2 sequence (P27338 1-520): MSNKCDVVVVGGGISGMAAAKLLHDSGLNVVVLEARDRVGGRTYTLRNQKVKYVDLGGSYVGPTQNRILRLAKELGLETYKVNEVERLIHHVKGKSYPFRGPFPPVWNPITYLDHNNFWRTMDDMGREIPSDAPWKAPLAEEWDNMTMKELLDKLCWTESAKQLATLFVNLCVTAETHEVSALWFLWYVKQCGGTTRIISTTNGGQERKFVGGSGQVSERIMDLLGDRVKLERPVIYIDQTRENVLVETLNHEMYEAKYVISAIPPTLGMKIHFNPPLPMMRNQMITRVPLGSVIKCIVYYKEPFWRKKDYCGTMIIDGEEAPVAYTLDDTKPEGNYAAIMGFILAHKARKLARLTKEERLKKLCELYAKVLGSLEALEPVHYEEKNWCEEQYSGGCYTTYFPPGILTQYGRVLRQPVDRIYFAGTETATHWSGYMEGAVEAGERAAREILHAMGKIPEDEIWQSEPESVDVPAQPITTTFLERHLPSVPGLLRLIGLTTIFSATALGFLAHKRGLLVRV
The experiment can be described thus: MAO-B enzymatic activity, spectrophotometric assay (Amplex Red, tyramine) on membranes of transfected EBNA cells. The class given is biochemical. The following applies: substrate tyramine, 30 min preincubation at 37° C., pH 7.4. The method, then:
as §1, §2, §3

Consider `CC(=Cc1ccc(OCc2cccc(F)c2)cc1)C(N)=O` [Example 1, 3-[4-(3-Fluoro-benzyloxy)-phenyl]-2-methyl-acrylamide], for which the values for the IC50 on human MAO-A and against human MAO-B were over 10000 nM and 83 nM, respectively.
Take `CNC(=O)C(C)Cc1ccc(OCc2cccc(F)c2)cc1` (stereo not drawn) [Example 4, 3-[4-(3-Fluoro-benzyloxy)-phenyl]-2,N-dimethyl-propionamide]: the IC50 at human MAO-A is over 10000 nM; against human MAO-B it was 29 nM.
The matching figures for `NC(=O)C#Cc1ccc(OCc2cccc(F)c2)cc1` [Example 5, 3-[4-(3-Fluoro-benzyloxy)-phenyl]-propynoic acid amide]: 5620 nM and 98 nM.
